Measurements: patent US20140107107A1, “PHARMACEUTICAL FORMULATION CONTAINING THIENOTRIAZOLODIAZEPINE COMPOUNDS” (Oncoethix SA, priority 2012, published 2014)

Tests used:
[1] = oral exposure in the rat (pharmacokinetics); type: in vivo, Hsd:Sprague Dawley rats; settings: 1 mg/kg intravenous
Procedure: The oral bioavailability of three formulations of solid dispersions of compound (1-1) was determined in rats. The three dispersions chosen were the 25% dispersion of compound (1-1) in PVP, the 25% dispersion of compound (1-1) in HPMCAS-MG, and the 50% dispersion of compound (1-1) in HPMCAS-MG. The animals used in the study were Specific Pathogen Free (SPF) Hsd:Sprague Dawley rats obtained from the Central Animal Laboratory at the University of Turku, Finland. The rats were originally purchased from Harlan, The Netherlands. The rats were female and were ten weeks of age, and 12 rats were used in the study. The animals were housed in polycarbonate Makrolon II cages (three animals per cage), the animal room temperature was 21+/−3° C., the animal room relative humidity was 55+/−15%, and the animal room lighting was artificial and was cycled for 12 hour light and dark periods (with the dark period between 18:00 and 06:00 hours). Aspen chips (Tapvei Oy, Estonia) were used for bedding, and bedding was changed at least once per week. Food and water was provided prior to dosing the animals but was removed during the first two hours after dosing.
The oral dosing solutions containing the 25% dispersion of compound (1-1) in PVP, the 25% dispersion of compound (1-1) in HPMCAS-MG, and the 50% dispersion of compound (1-1) in HPMCAS-MG were prepared by adding a pre-calculated amount of sterile water for injection to containers holding the dispersion using appropriate quantities to obtain a concentration of 0.75 mg/mL of compound (1-1). The oral dosing solutions were subjected to vortex mixing for 20 seconds prior to each dose. The dosing solution for intravenous administration contained 0.25 mg/mL of compound (1-1) and was prepared by dissolving 5 mg of compound (1-1) in a mixture containing 4 mL of polyethylene glycol with an average molecular weight of 400 Da (PEG400), 4 mL of ethanol (96% purity), and 12 mL of sterile water for injection. The dosing solution containing the 25% dispersion of compound (1-1) in PVP was used within 30 minutes after the addition of water. The dosing solutions containing the 25% dispersion of compound (1-1) in HPMCAS-MG and the 50% dispersion of compound (1-1) in HPMCAS-MG were used within 60 minutes of after the addition of water. A dosing volume of 4 mL/kg was used to give dose levels of compound (1-1) of 1 mg/kg for intravenous administration and 3 mg/kg for oral administration.
Blood samples of approximately 50 μL were collected into Eppendorf tubes containing 5 μL of ethylenediaminetetraacetic acid (EDTA) solution at time points of 0.25, 0.5, 1, 2, 4, 8, 12, and 24 hours after dosing, with each sample collected within a window of 5 minutes from the prescribed time point. From each sample, 20 μL of plasma was obtained and stored at dry ice temperatures for analysis. Analysis of each sample for the concentration of compound (1-1) was performed using a validated liquid chromatography tandem mass spectrometry (LC-MS/MS) method with a lower limit of quantitation of 0.5 ng/mL.
Pharmacokinetic parameters were calculated with the Phoenix WinNonlin software package (version 6.2.1, Pharsight Corp., CA, USA) with standard noncompartmental methods. The elimination phase half-life (t1/2) was calculated by least-squares regression analysis of the terminal linear part of the log concentration-time curve. The area under the plasma concentration-time curve (AUC) was determined by use of the linear trapezoidal rule up to the last measurable concentration and thereafter by extrapolation of the terminal elimination phase to infinity. The mean residence time (MRT), representing the average amount of time a compound remains in a compartment or system, was calculated by extrapolating the drug concentration profile to infinity. The maximum plasma concentration (Cmax) and the time to Cmax (tmax) were derived directly from the plasma concentration data. […]

[2] = pharmacokinetics and oral bioavailability in dogs; type: in vivo; settings: male, beagle, dog, plasma, 1 mg/kg IV
Procedure: Blood samples were collected from the jugular vein of each animal at 0 (pre-dose), 5, 15, and 30 minutes and 1, 2, 4, 8, 12, and 24 hours following intravenous administration and at 0 (pre-dose), 15 and 30 minutes and 1, 2, 4, 8, 12, and 24 hours following oral gavage administration. The amount of compound (1-1) present in each sample was detected using a qualified LC-MS/MS method with a lower limit of quantification of 0.5 ng/mL. The area under the plasma concentration-time curve (AUC) was determined by use of the linear trapezoidal rule up to the last measurable concentration without extrapolation of the terminal elimination phase to infinity. The elimination half-life (t1/2) was calculated by least-squares regression analysis of the terminal linear part of the log concentration-ime curve. The maximum plasma concentration (Cmax) and the time to Cmax (tmax) were derived directly from the plasma concentration data. The oral bioavailability (F) was calculated by dividing the dose normalized AUC after oral administration by the dose normalized AUC after intravenous administration and reported as percentages (%).

[3] = female, Hsd:Sprague Dawley, plasma

CI/F [1]: 13.4 mL/min/kg
Cmax [1, 3]: 730 ng/mL
MRT [1, 3]: 7.4 h
Tmax [1, 3]: 0.25 h
half-life [1, 3]: 8.5 h
AUC ([1]; female, Hsd:Sprague Dawley, plasma, extrapolated to infinity): 1240 ng·h/mL
half-life [2]: 1.5 h
Cmax ([2]; average of three dogs): 769 ng/mL
Tmax ([2]; average of three dogs): 4.98 min
AUC ([2]; to last measurable concentration): 889 ng·h/mL
SMILES: Cc1sc2c(c1C)C(c1ccc(Cl)cc1)=N[C@@H](CC(=O)Nc1ccc(O)cc1)c1nnc(C)n1-2 [Compound (1-1), 2-[(6S)-4-(4-chlorophenyl)-2,3,9-trimethyl-6H-thienol[3,2f]-[1,2,4]triazolo[4,3-a][1,4]diazepin-6-yl]-N-(4-hydroxyphenyl)acetamide dihydrate]
